Legend:
Assay in all cases: two-electrode voltage clamp, Xenopus oocytes
Assay type in all cases: cell-based
[1] = target: T1, Pun-GLC-3 (Parascaris univalens, UniProt A0A894K4V1)
T1 construct: full-length, expressed singly (cRNA) in Xenopus laevis oocytes; homomeric pentameric GluCl
T1 sequence (A0A894K4V1 25-485): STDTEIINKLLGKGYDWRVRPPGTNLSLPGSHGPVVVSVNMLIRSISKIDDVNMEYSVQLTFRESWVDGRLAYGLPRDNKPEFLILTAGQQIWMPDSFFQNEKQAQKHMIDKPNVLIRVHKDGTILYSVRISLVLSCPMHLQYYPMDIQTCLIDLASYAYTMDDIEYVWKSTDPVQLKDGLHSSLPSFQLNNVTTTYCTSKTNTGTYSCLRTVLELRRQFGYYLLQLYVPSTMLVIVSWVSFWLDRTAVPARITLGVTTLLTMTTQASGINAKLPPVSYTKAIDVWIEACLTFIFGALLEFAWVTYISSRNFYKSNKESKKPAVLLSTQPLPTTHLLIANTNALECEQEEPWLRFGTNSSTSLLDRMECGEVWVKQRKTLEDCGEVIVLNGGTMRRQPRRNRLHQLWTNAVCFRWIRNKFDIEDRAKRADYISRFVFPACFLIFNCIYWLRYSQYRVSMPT

[2] = target: T2, Cel-GLC-2 (Caenorhabditis elegans, UniProt Q17328)
T2 construct: full-length, expressed singly (cRNA) in Xenopus laevis oocytes; homomeric pentameric GluCl
T2 sequence (Q17328 23-434): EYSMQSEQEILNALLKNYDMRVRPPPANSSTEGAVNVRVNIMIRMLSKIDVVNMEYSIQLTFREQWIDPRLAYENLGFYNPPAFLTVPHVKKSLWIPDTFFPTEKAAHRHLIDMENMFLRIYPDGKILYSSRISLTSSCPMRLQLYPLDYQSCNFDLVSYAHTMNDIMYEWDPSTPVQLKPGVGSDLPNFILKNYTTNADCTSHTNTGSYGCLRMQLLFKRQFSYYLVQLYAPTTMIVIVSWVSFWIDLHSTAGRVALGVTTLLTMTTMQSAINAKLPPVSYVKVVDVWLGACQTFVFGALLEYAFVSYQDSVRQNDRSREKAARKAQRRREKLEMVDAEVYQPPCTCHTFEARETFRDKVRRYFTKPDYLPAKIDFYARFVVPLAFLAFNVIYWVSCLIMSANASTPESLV

[3] = target: T3, Pun-AVR-14B/GLC-2 (Parascaris univalens, UniProt A0A894K7G1+A0A894KE58)
T3 construct: full-length subunits co-expressed 1:1 (cRNA) in Xenopus laevis oocytes; heteromeric, pentameric GluCl, stoichiometry unknown
T3 sequence (A0A894K7G1 19-428): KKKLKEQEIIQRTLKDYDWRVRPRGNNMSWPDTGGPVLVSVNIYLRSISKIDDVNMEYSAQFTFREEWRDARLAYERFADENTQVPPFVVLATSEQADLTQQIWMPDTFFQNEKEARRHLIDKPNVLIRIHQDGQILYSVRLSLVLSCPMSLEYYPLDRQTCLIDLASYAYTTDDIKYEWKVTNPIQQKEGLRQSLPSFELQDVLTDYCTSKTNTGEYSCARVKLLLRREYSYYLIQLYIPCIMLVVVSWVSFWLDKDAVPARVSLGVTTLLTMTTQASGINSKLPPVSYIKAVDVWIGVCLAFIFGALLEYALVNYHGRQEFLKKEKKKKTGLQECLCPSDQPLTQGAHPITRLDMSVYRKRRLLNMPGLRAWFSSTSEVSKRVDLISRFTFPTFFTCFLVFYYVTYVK
T3 sequence (A0A894KE58 21-448): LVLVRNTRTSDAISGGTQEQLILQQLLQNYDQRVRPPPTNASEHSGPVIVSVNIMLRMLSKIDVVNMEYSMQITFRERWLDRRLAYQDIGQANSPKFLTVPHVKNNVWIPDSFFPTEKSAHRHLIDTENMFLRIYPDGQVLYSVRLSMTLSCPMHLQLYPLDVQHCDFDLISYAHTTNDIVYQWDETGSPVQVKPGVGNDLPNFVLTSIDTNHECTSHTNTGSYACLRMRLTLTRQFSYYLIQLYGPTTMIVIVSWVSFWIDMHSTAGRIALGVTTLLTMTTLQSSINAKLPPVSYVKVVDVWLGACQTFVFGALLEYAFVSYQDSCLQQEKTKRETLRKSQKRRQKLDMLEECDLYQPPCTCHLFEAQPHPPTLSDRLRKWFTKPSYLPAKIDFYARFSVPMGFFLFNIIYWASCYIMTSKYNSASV

[4] = target: T4, Cel-AVR-14B/GLC-2 (Caenorhabditis elegans, UniProt Q17328+Q17369)
T4 construct: full-length subunits co-expressed 1:1 (cRNA) in Xenopus laevis oocytes; heteromeric, pentameric GluCl, stoichiometry unknown; b70 prints CAA04170 for AVR-14B, which b73 gives to AVR-15B
T4 sequence (Q17369 22-430): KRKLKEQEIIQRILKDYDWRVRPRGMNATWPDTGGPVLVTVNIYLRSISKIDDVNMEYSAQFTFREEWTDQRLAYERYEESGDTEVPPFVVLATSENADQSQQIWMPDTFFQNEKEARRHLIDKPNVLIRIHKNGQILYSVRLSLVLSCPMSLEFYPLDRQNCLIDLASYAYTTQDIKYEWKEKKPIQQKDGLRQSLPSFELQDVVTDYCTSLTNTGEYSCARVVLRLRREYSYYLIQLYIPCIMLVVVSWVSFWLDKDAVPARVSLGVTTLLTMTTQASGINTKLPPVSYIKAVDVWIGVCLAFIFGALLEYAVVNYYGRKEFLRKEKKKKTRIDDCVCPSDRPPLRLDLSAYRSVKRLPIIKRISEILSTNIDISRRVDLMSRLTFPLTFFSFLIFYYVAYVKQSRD
T4 sequence (Q17328 23-434): T2 sequence (Q17328 23-434)

[5] = target: T5, Pun-GLC-2/GLC-3 (Parascaris univalens, UniProt A0A894K4V1+A0A894KE58)
T5 construct: full-length subunits co-expressed 1:1 (cRNA) in Xenopus laevis oocytes; heteromeric, pentameric GluCl, stoichiometry unknown
T5 sequence (A0A894KE58 21-448): T3 sequence (A0A894KE58 21-448)
T5 sequence (A0A894K4V1 25-485): T1 sequence (A0A894K4V1 25-485)

[6] = target: T6, Cel-AVR-14B (Caenorhabditis elegans, UniProt Q17369)
T6 construct: full-length, expressed singly (cRNA) in Xenopus laevis oocytes; homomeric pentameric GluCl; b70 prints CAA04170 for AVR-14B, which b73 gives to AVR-15B
T6 sequence (Q17369 22-430): T4 sequence (Q17369 22-430)

[7] = target: T7, Cel-GLC-2/GLC-3 (Caenorhabditis elegans, UniProt G5EEZ3+Q17328)
T7 construct: full-length subunits co-expressed 1:1 (cRNA) in Xenopus laevis oocytes; heteromeric, pentameric GluCl, stoichiometry unknown
T7 sequence (Q17328 23-434): T2 sequence (Q17328 23-434)
T7 sequence (G5EEZ3 23-484): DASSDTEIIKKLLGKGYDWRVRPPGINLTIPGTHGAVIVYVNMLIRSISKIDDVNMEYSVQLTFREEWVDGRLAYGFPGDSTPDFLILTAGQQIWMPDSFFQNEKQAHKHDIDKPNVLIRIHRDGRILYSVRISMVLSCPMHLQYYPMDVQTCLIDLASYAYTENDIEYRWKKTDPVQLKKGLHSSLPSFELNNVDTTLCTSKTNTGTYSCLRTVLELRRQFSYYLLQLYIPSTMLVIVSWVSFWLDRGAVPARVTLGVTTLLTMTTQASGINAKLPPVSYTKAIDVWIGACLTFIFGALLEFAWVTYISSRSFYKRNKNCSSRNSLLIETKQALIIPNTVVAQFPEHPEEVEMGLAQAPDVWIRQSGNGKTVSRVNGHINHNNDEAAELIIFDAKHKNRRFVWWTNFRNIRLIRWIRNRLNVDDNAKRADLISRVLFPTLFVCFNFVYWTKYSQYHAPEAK

**Q.** Which results are given for `N[C@@H](CCC(=O)O)C(=O)O` [glutamate]?
**A.** EC50 [1]: 1480 ± 111 µM; EC50 [2]: 215 ± 13.1 µM; EC50 [3]: 13.6 ± 1.6 µM; EC50 [4]: 20.5 ± 1.3 µM; EC50 [5]: 120 ± 5.7 µM; EC50 [6]: 112 ± 13 µM; EC50 [7]: 46.8 ± 3.7 µM

From doi:10.1101/2020.12.17.423223v1 (biorxiv, 2020)
